Test results: patent US20060016765A1, “Water treatment” (priority 2004, published 2006)
“And” between values parts separate entries of the source, which are not always exact repeats. Equal entries are not always repeated. Where two headings read alike, the source gives them in different places.

Legend:
Assay type in all cases: cell-based
[1] = test system: Staphylococcus aureus ATCC 6538; test: Microbial efficacy, modified AOAC 965.13, serial-dilution plate count
[2] = test system: Pseudomonas aeruginosa ATCC 15442; test: as above
[3] = test system: Salmonella choleraesuis ATCC 10708
[4] = test system: Aspergillus fumigatus ATCC 1098; test: Fungicidal activity, modified AOAC Method 955.17, spore kill; conditions: for reduction of the fungal bioburden: solutions equivalent to amounts found in the tablet solution
Experimental: This assay had several modifications from the published AOAC Fungicidal Activity of Disinfectants Protocol, Method 955.17. Aspergillus fumigatus ATCC 1098 was grown on Malt Extract Agar (available from Becton Dickinson, Billerica, Mass.) plates, and spores were harvested. Spores were stored in filter-sterilized Millipore water at −20° C. The spore preparation used for this experiment is detailed below. A freezer stock of A. fumigatus was defrosted and diluted to obtain an inoculum suspension for this experiment. […] The following test solutions were prepared using filter-sterilized MILLIPORE water in steam-sterilized 4 L bottles:
Water Control: (filter-sterilized water only), pH 6.28.
OXONE Control: 3.78 g OXONE in 1 gallon (about 3.8 liters) sterile water, buffered to pH 4.43 using 0.98 g NaHCO3 and 5.25 g 10% H2SO4.
Chlorite Control: 0.26 g of sodium chlorite in 1-gallon sterile water buffered to pH 4.55 (1.8 g 10% H2SO4).
Buffer Control: sodium bicarbonate, pH adjusted to 4.4.
Chlorine Dioxide: Anthium Dioxide (stabilized sodium chlorite available from IDI, North Kingston, R1) was acidified with HCl.
CLOROX control: 4.17% (v/v) CLOROX bleach available from Clorox Company, Oakland, Calif. (v/v) in MILLIPORE water by mixing 4.17 ml of Clorox bleach and water up to 100 ml total volume.
Reaction tubes: 5 ml of each test solution was aliquoted into 25×150 mm test culture tubes, capped and labeled according to Table 6. 9 ml of D/E (Dey/Engley) Neutralizing Broth (available from Becton Dickinson, Billerica, Mass.) was added to each of 28 test tubes and the tubes were capped. Butterfield buffer blanks were arranged for dilution of neutralized samples, and Malt Extract Agar plates were numbered for spore enumerations of the diluted, neutralized samples. With a graduated pipette, 0.5 ml of spore inoculum (about […]) was added to the first tube of test solution and gently shaken. After 5- and 15-minute exposures to the respective test solutions, samples were gently shaken and 1 ml samples were removed from each reaction mixture (spore-test solution) using an Eppendorf pipette and placed in 9 ml D/E (Dey/Engley) Neutralizing Broth. The inoculum was further diluted to approximately 10^4 condia/ml. Two more reaction tubes (water and OXONE-chlorite) and four Dey/Engley neutralization tubes were prepared to evaluate the efficacy of the tablet solution versus a final inoculum density of 10^4 condia/ml in the reaction tube. Samples were reacted for 15 minutes only. Dilutions of neutralized samples were prepared. Two 100 μl aliquots of all samples in D/E (Dey/Engley) Neutralizing Broth were plated on Malt Extract Agar and incubated at 25° C. until the appearance of colonies. Plates were counted after colonies appeared, roughly 4 days after incubation. Several dilutions of the inoculum spore suspensions were also plated on Malt Extract Agar to obtain an accurate count of viable spores used as inoculum. The samples were incubated at 25° C. and counted after the appearance of colonies, after about 4 days of incubation.
Buffer control data was taken after 15 minutes. CLOROX control data was taken after 5 minutes of treatment.

[5] = 30 sec exposure, Example 11 = 1,008 ppm Oxone + 55.5 ppm Chlorite, controls 1,008 ppm Oxone, 55.5 ppm Chlorite, 23.2 ppm ClO2
[6] = 30 sec exposure, Example 11 = 1,008 ppm Oxone + 55.5 ppm Chlorite, controls 1,008 ppm Oxone, 55.5 ppm Chlorite, 23.2 ppm ClO2, low level of detection 1.0E+01 CFU/mL
[7] = 10 min exposure, Example 11 = 1,008 ppm Oxone + 55.5 ppm Chlorite, controls 1,008 ppm Oxone, 55.5 ppm Chlorite, 23.2 ppm ClO2
[8] = 10 min exposure, Example 11 = 1,008 ppm Oxone + 55.5 ppm Chlorite, controls 1,008 ppm Oxone, 55.5 ppm Chlorite, 23.2 ppm ClO2, low level of detection 1.0E+01 CFU/mL

## sodium chlorite [Chlorite control]
[1]; [5]
  Δt (log difference test and control densities): 0.0 log
[1]; [6]
  CFU/ml: 1.23E + 06 CFU/ml
[1]; [7]
  Δt (log difference test and control densities): 0.1 log
[1]; [8]
  CFU/ml: 1.20E + 06 CFU/ml
[2]; [5]
  Δt (log difference test and control densities): −0.1 log
[2]; [6]
  CFU/ml: 1.17E + 06 CFU/ml
[2]; [7]
  Δt (log difference test and control densities): 0.0 log
[2]; [8]
  CFU/ml: 1.21E + 06 CFU/ml
[3]; [5]
  Δt (log difference test and control densities): −0.3 log
[3]; [6]
  CFU/ml: 3.09E + 06 CFU/ml
[3]; [7]
  Δt (log difference test and control densities): 0.2 log
[3]; [8]
  CFU/ml: 1.27E + 06 CFU/ml
[4]; 5 min, 2 replicates average
  Surviving Bioburden Counts (germinating spores, conidia/ml): 4.25E + 05 conidia/ml
[4]; 15 min, 2 replicates average
  Surviving Bioburden Counts (germinating spores, conidia/ml): 6.25E + 05 conidia/ml
[4]
  reduction of the fungal bioburden: ineffective in reducing the fungal bioburden
  reduction of the bioburden within 15 minutes of treatment: not able to reduce the bioburden

## triple salt of potassium monopersulfate, potassium hydrogen sulfate and potassium sulfate [Oxone control]
[1]; [5]
  Δt (log difference test and control densities): 0.0 log
[1]; [6]
  CFU/ml: 1.52E + 06 CFU/ml
[1]; [7]
  Δt (log difference test and control densities): 0.4 log
[1]; [8]
  CFU/ml: 6.15E + 05 CFU/ml
[2]; [5]
  Δt (log difference test and control densities): 0.0 log
[2]; [6]
  CFU/ml: 9.50E + 05 CFU/ml
[2]; [7]
  Δt (log difference test and control densities): 5.1 log
[2]; [8]
  CFU/ml: 1.00E + 01 CFU/ml
[3]
  CFU/ml: 2.95E + 03 CFU/ml and 2.14E + 06 CFU/ml
[4]; 5 min, 2 replicates average
  Surviving Bioburden Counts (germinating spores, conidia/ml): 3.45E + 05 conidia/ml
[4]; 15 min, 2 replicates average
  Surviving Bioburden Counts (germinating spores, conidia/ml): 5.70E + 05 conidia/ml
[4]
  reduction of the fungal bioburden: ineffective in reducing the fungal bioburden
  reduction of the bioburden within 15 minutes of treatment: not able to reduce the bioburden

## [O][Cl+][O-] [ClO2 control, chlorine dioxide]
[1]
  CFU/ml: 1.00E + 01 CFU/ml
  Δt (log difference test and control densities): 5.1 log and 5.2 log
[2]
  CFU/ml: 1.00E + 01 CFU/ml
  Δt (log difference test and control densities): 5 log and 5.0 log and 5.1 log
[3]
  CFU/ml: 1.00E + 01 CFU/ml
  Δt (log difference test and control densities): 5.1 log and 5.3 log
[4]
  Surviving Bioburden Counts (germinating spores, conidia/ml): 0.00E + 00 conidia/ml
  kill of A. fumigatus spores within 5 minutes: 5 log
